Laboratory results reported in patent publication US8865704B2, “Wnt pathway antagonists” (Siena Biotech S.p.A., priority 2009, dated 2014).

Test system: Wnt/β-catenin pathway
Assay: Wnt reporter assay (TCF-Luciferase, Firefly) in DBTRG-05MG cells
Assay type: cell-based
Conditions: Homo sapiens, 24 hours after compound addition
Method: TCF-Luciferase: Three copies of a 4×TCF responsive elements were cloned into the pcDNA3.1/Zeo(+) vector (Invitrogen) after deletion of the constitutive CMV promoter and the insertion of the Firefly Luciferase from Promega (phFL-TK) to measure the activity of the Wnt/β-catenin pathway. The resulting plasmid was sequenced for quality control.
Cells were grown in 20 μg/ml Zeocin and 20 μg/ml Zeocin plus 30 μg/ml Hygromicin respectively. The cells were plated at a density of 6500 cells/well in poly-D-lysine pre-treated 96 well-plates.
IC50 determination: 36 hours after plating cells were incubated with 8-points (60 μM-40 μM-20 μM-10 μM-5 μM-1.66 μM-0.55 μM-0.185 μM) dilutions compound (0.6% DMSO (v/v)). Each compound was tested in triplicate in single plate. Luciferase detection was done with Dual-Luciferase Reporter Assay System (Promega). 24 hours after compound addition, media was removed and 30 μl of 1× lysis buffer was added to each well for 30 minutes. To each well 45 μl of Dual-Glo Luciferase reagent (Promega) were added and after 1 second delay Luciferase was detected for 1 second using Mithras LB940 instrument. After Firefly luciferase quantification 45 μl of Dual Stop & Glo reagent (Promega) were added to each well and Firefly Renilla was detected using the same parameters described before.
Data were expressed as % of control for Firefly and Renilla luciferase independently; values were calculated using XLFit version 4.2, with a four parameters sigmoid function (XLFit model 205).

SMILES	IC50 [µM]
COc1ccc2c(c1)c(=O)n(C[C@H]1CC[C@H](C(=O)Nc3ccncc3C)CC1)c(=O)n2C [Example 172]	0.3 to 30
COCC(=O)N1CCN(C(=O)[C@H]2CC[C@H](Cn3c(=O)c4ccccc4n(C)c3=O)CC2)CC1 [Example 53]	0.3 to 30
CCOc1ccc2c(c1)c(=O)n(C[C@H]1CC[C@H](C(=O)N3CCN(c4ccncc4)CC3)CC1)c(=O)n2C [Example 197]	0.3 to 30
O=C1CC(c2ccccc2)NC(=O)N1C[C@H]1CC[C@H](C(=O)N2CCN(c3ccccc3)CC2)CC1 (some centres unmarked) [Example 44]	0.3 to 30
COc1ccc2c(n1)n(C[C@H]1CC[C@H](C(=O)N3CCOCC3)CC1)c(=O)n2C [Example 167]	0.3 to 30
COc1cc2c(cc1Cl)n(C[C@H]1CC[C@H](C(=O)N3CCOCC3)CC1)c(=O)n2C [Example 186]	0.3 to 30
COCC(=O)N1CCN(C(=O)[C@H]2CC[C@H](Cn3c(=O)n(C)c4ccc(C)nc43)CC2)CC1 [Example 204]	0.3 to 30
O=C1Nc2ccccc2CCN1C[C@H]1CC[C@H](C(=O)N2CCN(c3ccccn3)CC2)CC1 [Example 16, 3-[trans-4-(4-pyridin-2-yl-piperazine-1-carbonyl)-cyclohexylmethyl]-1,3,4,5-tetrahydro-benzo[d][1,3]diazepin-2-one]	0.3 to 30
O=c1[nH]c2ccccc2c(=O)n1C[C@H]1CC[C@H](C(=O)Nc2cccc3cccnc23)CC1 [Example 70]	0.3 to 30
COc1cccc(NC(=O)[C@H]2CC[C@H](Cn3c(=O)n(C)c4ccc(OC)nc43)CC2)c1 [Example 209]	0.3 to 30
COC(=O)N1CCN(C(=O)[C@H]2CC[C@H](Cn3c(=O)n(C)c4ccc(OC)nc43)CC2)CC1 [Example 205]	0.3 to 30
CN1C(=O)N(C[C@H]2CC[C@H](C(=O)N3CCN(c4ccccc4)CC3)CC2)Cc2ccccc21 [Example 46]	0.3 to 30
COc1ccccc1NC(=O)[C@H]1CC[C@H](CN2CCc3ccccc3NC2=O)CC1 [Example 118]	0.3 to 30
COc1ccc2c(c1)n(C[C@H]1CC[C@H](C(=O)N3CCOCC3)CC1)c(=O)n2C [Example 9, 5-Methoxy-1-methyl-3-[trans-4-(morpholine-4-carbonyl)-cyclohexylmethyl]-1,3-dihydro-benzoimidazol-2-one]	0.3 to 30
COc1ccc2c(c1)c(=O)n(C[C@H]1CC[C@H](C(=O)Nc3ccc(OC)nc3OC)CC1)c(=O)n2C [Example 155]	0.3 to 30
CCOc1ccc2c(c1)c(=O)n(C[C@H]1CC[C@H](C(=O)Nc3ccncc3)CC1)c(=O)n2C [Example 196]	0.3 to 30
O=c1[nH]c2ccccc2c(=O)n1C[C@H]1CC[C@H](C(=O)N2CCN(Cc3ccccc3)CC2)CC1 [Example 24]	0.3 to 30
O=C(C1CCC(Cn2cnc3ccccc3c2=O)CC1)N1CCN(Cc2ccccc2)CC1 (centres unmarked) [Example 19]	0.3 to 30
COc1ccc2c(c1)c(=O)n(C[C@H]1CC[C@H](C(=O)Nc3ccc(OC)nc3)CC1)c(=O)n2C [Example 154]	0.3 to 30
COc1ccccc1NC(=O)[C@H]1CC[C@H](CN2C(=O)Cc3ccccc3NC2=O)CC1 [Example 120]	0.3 to 30
COc1cccc(NC(=O)[C@H]2CC[C@H](Cn3c(=O)c4cc(OC)ccc4n(C)c3=O)CC2)c1 [Example 191]	0.3 to 30
O=C(C1CCCC1)N1CCN(C(=O)[C@H]2CC[C@H](CN3Cc4ccccc4NC3=O)CC2)CC1 [Example 72]	0.3 to 30
O=c1[nH]c2ccccc2c(=O)n1C[C@H]1CC[C@H](C(=O)Nc2ccc3ncsc3c2)CC1 [Example 49]	0.3 to 30
Cn1c(=O)n(C[C@H]2CC[C@H](C(=O)N3CCN(C(=O)C4CC4)CC3)CC2)c2c(Cl)cccc21 [Example 168]	0.3 to 30
CC(=O)N1CCN(C(=O)[C@H]2CC[C@H](Cn3c(=O)n(C)c4ccc(Cl)cc43)CC2)CC1 [Example 180]	0.3 to 30
CN1C(=O)N(C[C@H]2CC[C@H](C(=O)N3CCN(C(=O)C4CCCC4)CC3)CC2)Cc2ccccc21 [Example 68]	0.3 to 30
Cn1c(=O)n(C[C@H]2CC[C@H](C(=O)N3CCN(c4ccccc4)CC3)CC2)c(=O)c2ccccc21 [Example 2, trans-1-Methyl-3-[4-(4-phenyl-piperazine-1-carbonyl)-cyclohexylmethyl]-1H-quinazoline-2,4-dione]	0.3 to 30
Cn1c(=O)n(C[C@H]2CC[C@H](C(=O)N3CCN(C(=O)C4CC4)CC3)CC2)c2cc(C(F)(F)F)ccc21 [Example 163]	0.3 to 30
COC(=O)N1CCN(C(=O)[C@H]2CC[C@H](Cn3c(=O)n(C)c4ccc(C)nc43)CC2)CC1 [Example 203]	0.3 to 30

Continued, values first:

IC50 [µM]	SMILES
0.3 to 30	CC(C)N1CCN(C(=O)[C@H]2CC[C@H](Cn3c(=O)[nH]c4ccccc4c3=O)CC2)CC1 [Example 41]
0.3 to 30	CC(C)C(=O)N1CCN(C(=O)[C@H]2CC[C@H](Cn3c(=O)[nH]c4cccc(F)c4c3=O)CC2)CC1 [Example 54]
0.3 to 30	COc1ccc2[nH]c(=O)n(C[C@H]3CC[C@H](C(=O)N4CCN(C)C(=O)C4)CC3)c2c1 [Example 160]
0.3 to 30	COc1ccc2c(c1)n(C[C@H]1CC[C@H](C(=O)N3CCN(C(=O)C4CCCO4)CC3)CC1)c(=O)n2C (some centres unmarked) [Example 192]
0.3 to 30	COc1cccc2[nH]c(=O)n(C[C@H]3CC[C@H](C(=O)N4CCN(C(=O)C(C)C)CC4)CC3)c(=O)c12 [Example 55]
0.3 to 30	CCCC(C)C(=O)N1CCN(C(=O)[C@H]2CC[C@H](Cn3c(=O)c4cc(OC)ccc4n(C)c3=O)CC2)CC1 (some centres unmarked) [Example 124]
0.3 to 30	CCOc1ccc2c(c1)c(=O)n(C[C@H]1CC[C@H](C(=O)N3CCN(C(=O)COC)CC3)CC1)c(=O)n2C [Example 198]
0.3 to 30	COc1ccc2[nH]c(=O)n(C[C@H]3CC[C@H](C(=O)N4CCN(C(=O)C5CCC5)CC4)CC3)c(=O)c2c1 [Example 106]
0.3 to 30	COc1ccc2[nH]c(=O)n(C[C@H]3CC[C@H](C(=O)N4CCN(C(=O)C5CC5)[C@H](C)C4)CC3)c(=O)c2c1 [Example 157]
0.3 to 30	O=c1[nH]c2ccc(Cl)cc2c(=O)n1C[C@H]1CC[C@H](C(=O)N2CCN(Cc3ccccc3)CC2)CC1 [Example 25]
0.3 to 30	CCN1CCN(C(=O)[C@H]2CC[C@H](Cn3c(=O)[nH]c4ccc(OC)cc4c3=O)CC2)CC1=O [Example 87]
0.3 to 30	COc1ccc2[nH]c(=O)n(C[C@H]3CC[C@H](C(=O)N4CCN(C(=O)C5CC5)[C@@H](C)C4)CC3)c(=O)c2c1 [Example 152]
0.3 to 30	COc1ccc2c(n1)n(C[C@H]1CC[C@H](C(=O)N3CCN(C(=O)C4CC4)CC3)CC1)c(=O)n2C [Example 166]
0.3 to 30	COc1ccc2[nH]c(=O)n(C[C@H]3CC[C@H](C(=O)N4CCN(CC5CC5)C(=O)C4)CC3)c(=O)c2c1 [Example 105]
0.3 to 30	CCN1CCN(C(=O)[C@H]2CC[C@H](Cn3c(=O)c4cc(OC)ccc4n(C)c3=O)CC2)CC1=O [Example 93]
0.3 to 30	COCC(=O)N1CCN(C(=O)[C@H]2CC[C@H](Cn3c(=O)[nH]c4ccc(OC)cc4c3=O)CC2)C[C@@H]1C [Example 159]
0.3 to 30	COc1ccc2[nH]c(=O)n(C[C@H]3CC[C@H](C(=O)N4CCN(C(=O)OC(C)C)CC4)CC3)c(=O)c2c1 [Example 103]
0.3 to 30	CCC(C)OC(=O)N1CCN(C(=O)[C@H]2CC[C@H](Cn3c(=O)[nH]c4ccc(OC)cc4c3=O)CC2)CC1 (some centres unmarked) [Example 104]
0.3 to 30	CCOc1ccc2[nH]c(=O)n(C[C@H]3CC[C@H](C(=O)N4CCN(C(=O)C(C)C)CC4)CC3)c(=O)c2c1 [Example 162]
0.3 to 30	COCC(=O)N1CCN(C(=O)[C@H]2CC[C@H](Cn3c(=O)c4cc(OC)ccc4n(C)c3=O)CC2)C[C@H]1C [Example 151]
0.3 to 30	Cc1ccc2[nH]c(=O)n(C[C@H]3CC[C@H](C(=O)N4CCN(C(=O)C5CC5)CC4)CC3)c2c1 [Example 95]
0.3 to 30	COc1ccc2c(c1)c(=O)n(C[C@H]1CC[C@H](C(=O)N3CCN(C(=O)C4CC4)[C@H](C)C3)CC1)c(=O)n2C [Example 150]
0.3 to 30	COc1ccc2[nH]c(=O)n(C[C@H]3CC[C@H](C(=O)N4CCN(C(=O)c5ccncn5)CC4)CC3)c(=O)c2c1 [Example 117]
0.3 to 30	COCCN1CCN(C(=O)[C@H]2CC[C@H](Cn3c(=O)[nH]c4ccc(OC)cc4c3=O)CC2)CC1=O [Example 88]
0.3 to 30	COc1ccc2[nH]c(=O)n(C[C@H]3CC[C@H](C(=O)N4CCN(C(=O)c5cncn5C)CC4)CC3)c(=O)c2c1 [Example 115]
0.3 to 30	CCCCC(=O)N1CCN(C(=O)[C@H]2CC[C@H](Cn3c(=O)[nH]c4ccccc4c3=O)CC2)CC1 [Example 35]
0.3 to 30	O=C(C1CCCO1)N1CCN(C(=O)[C@H]2CC[C@H](Cn3c(=O)[nH]c4ccccc4c3=O)CC2)CC1 (some centres unmarked) [Example 4, 3-{4-[4-(Tetrahydro-furan-2-carbonyl)-piperazine-1-carbonyl]-cyclohexylmethyl}-1H-quinazoline-2,4-dione]
0.3 to 30	COCCN1CCN(C(=O)[C@H]2CC[C@H](Cn3c(=O)c4cc(OC)ccc4n(C)c3=O)CC2)CC1=O [Example 94]
0.3 to 30	COCC(=O)N1CCN(C(=O)[C@H]2CC[C@H](Cn3c(=O)[nH]c4ccc(Cl)cc4c3=O)CC2)CC1 [Example 62]
0.3 to 30	O=C(N1CCCC1)N1CCN(C(=O)[C@H]2CC[C@H](Cn3c(=O)[nH]c4ccccc4c3=O)CC2)CC1 [Example 42]
